Laboratory results as given in US11491117B2, “Compounds for the prevention and treatment of glucose intolerance related conditions and obesity” (SORBONNE UNIVERSITÉ, priority 2017, dated 2022).

What was measured:
[1] = system: adipose tissue gene expression; assay: Quantitative RT-PCR in retroperitoneal fat pads of chronically treated mice; type: in vivo, mouse
Description: Transcript abundance of key genes regulating adipose tissue biology was tested by quantitative RT-PCR in retroperitoneal fat pads of mice fed control chow diet (CHD) or high fat diet (HFD). Data were analyzed using the unpaired Mann-Whitney test. […] RNA was extracted from pancreas, adipose tissue and liver using the RNeasy RNA Mini Kit (Qiagen, Courtaboeuf, France). Reverse transcription was performed from a 20 μL reaction mixture with 500 ng RNA using M-MLV reverse transcriptase kit (ThermoFisher, Villebon, France). Quantitative RT-PCR was performed using sequence specific primers and the MESA green kit for SYBR green assays (Eurogentec, Angers, France). We used 18S and/or cyclophilin house keeping genes to normalize relative quantification of mRNA levels using the Livak and […] methods ([…], 2001).

Goto-Kakizaki (GK) rats [2] = assay: Pancreas histology and immunohistochemistry of chronically treated GK rats; type: in vivo, rat
Description: Pancreas sections were labeled either with Hematoxylin-Eosin and Immunohistochemistry to determine insulin positive area (FIG. 9F) and treated with Ki 67 and DAPI to stain and quantify proliferative nuclei (FIG. 9G). […] All measures are from 6 rats per group. Data were analyzed using the unpaired Mann-Whitney test. […] Tissues were drop-fixed in 4% paraformaldehyde (Sigma-Aldrich, Saint Quentin Fallavier, France) immediately after collection and put through an automated carousel processor for dehydration, clearing, and paraffin embedding (Leica, Nanterre, France). Sections were prepared for liver (6 μm), pancreas (6 μm) and adipose tissue ([…]) and mounted on slides (DPX polymerizing mountant, Sigma-Aldrich, Saint Quentin Fallavier, France). Hematoxylin and Eosin (H&E) was used to evaluate tissue morphology. Epitope-specific antibodies were used for immunohistochemistry detection of insulin on pancreas sections (Dako, Saint Aubin, France). […] Quantitative expression of all immunostainings was performed using positive pixels algorithm (Indica Labs, Corrales, N. Mex.). […] Results are expressed as percentage of positive pixels, within islets where indicated. The quantification method is an automated observer-independent process based on section scanning and application of publicly available algorithms. […]

isolated mouse islets = assay: Incubation of isolated mouse islets: insulin release, insulin content, Ki67 proliferation; type: cell-based
Goto-Kakizaki (GK) rats [3] = assay: Chronic subcutaneous infusion in Goto-Kakizaki rats: body and organ weight, glucose homeostasis (IPGTT), insulin secretion; type: in vivo, rat
Description: The animal experiments on rats were conducted on diabetic adult 8 months aged male Goto-Kakizaki (GK) rats from the local colony of Paris-Diderot University (Paris, France). GK strain derived after backcrossing of animals selected at the upper limit of normal distribution for glucose tolerance. Characteristics of GK rats have been previously described. Rats had free access to a control carbohydrate diet (CHD) (D 12450Ki, Research diets, NJ) and were kept on 12 h light/dark cycle. […] Rats were killed by decapitation and blood and organs collected for measurement of metabolic parameters, islet isolation for quantitative RT-PCR analysis and immunohistochemistry. […] After three weeks of metabolite treatment (i.e. four weeks of HFD feeding) an intra-peritoneal glucose tolerance test (IPGTT) (2 g/kg) was performed in conscious mice following an overnight fast. Blood was collected from the tail vein before glucose injection and 15, 30, 60 and 120 minutes afterwards. Additional blood samples were collected during the IPGTT in GK rats 15, 90, 180 and 240 minutes after glucose injection. Blood glucose levels were determined using an Accu-Check® Performa (Roche Diagnostics, Meylan, France). Additional blood samples were collected at base line and 30 minutes after glucose injection in Microvette® CB 300 Lithium Heparin ([…], France). Plasma was separated by centrifugation and stored at -80° C. until insulin radioimmunoassay. Evaluation of overall glucose tolerance was obtained from cumulative glycemia (GCum) and the ΔG, which were determined by the total increment of plasma glucose values during the IPGTT (GCum) and the cumulative glycemia during the test above baseline (ΔG). After six weeks of metabolite treatment, mice were killed by decapitation and organ were dissected and weighed. Half of liver, fat and pancreas samples were snap frozen in liquid nitrogen and stored at -80° C. for molecular studies, and the second half processed for histopathology. All procedures were authorized following review by the institutional ethic committee and carried out under national license condition (Ref 00486.02). Blood glucose was measured using an Accu-Check® Performa (Roche Diagnostics, Meylan, France) and plasma insulin was determined using Insulin ELISA kits (Mercodia, Uppsala, Sweden). For determination of liver triglycerides, liver samples (100 mg) were homogenized and incubated in NonidetP-40 (5%) and supernatants containing triglycerides were collected. Triglycerides concentration was quantified in the supernatant fraction using a colorimetric assay (ab65336, Abcam, Paris, France) by measuring OD at 570 nm. The ratio NAD/NADH was determined using a quantification kit (MAK037; […] Samples were homogenized in the extraction buffer and clarified by centrifugation. Supernatant was deproteinized by filtration through a 10-kDa cutoff spin filter (Millipore SAS, Molsheim, France). The assay was then performed according to the manufacturer's instructions.

[4] = molecular target: dual specificity tyrosine phosphorylation regulated kinase DYRK1A (Homo sapiens, UniProt Q13627); assay: In vitro interaction analysis (DiscoverX) by determination of the EC50

**Q.** For `Cc1ccc(O)cc1` [4-cresol], which “Ucp1 expression in adipose tissue” value ([1]; CHD fed mice) is on record?
**A.** markedly downregulated

**Q.** What about the “expression of Sirt1, Cav2, Hsl and Pnpla2 (Atg1) in adipose tissue” value ([1]; CHD fed mice) of the same molecule?
**A.** significantly stimulated

**Q.** And the “Ucp1 expression in adipose tissue” value ([1]; HFD-fed mice, vs HFD saline and CHD 4-cresol)?
**A.** significantly downregulated

**Q.** What about the “expression of Hsl and Pnpla2 in adipose tissue” value ([1]; HFD-fed mice, vs saline treated fat fed mice) of the same molecule?
**A.** significantly upregulated

**Q.** And the “cell proliferation (Ki 67 labeling) in pancreas” value (Goto-Kakizaki (GK) rats [2])?
**A.** increased cell proliferation

**Q.** And the insulin positive area (Goto-Kakizaki (GK) rats [2])?
**A.** significant increase

**Q.** And the “islet cell proliferation (KI67)” value (isolated mouse islets; 10 nM)?
**A.** significant effect

**Q.** What about the “increase in insulin release under basal condition” value (isolated mouse islets; 10 nM, 2.8 mM glucose) of the same molecule?
**A.** +17.3%

**Q.** And the “stimulation of insulin secretion in response to glucose” value (isolated mouse islets; 10 nM, glucose 16.6 mM, p=0.06)?
**A.** +25.8%

**Q.** And the “increase in islet insulin content” value (isolated mouse islets; 10 nM, p<0.05)?
**A.** +33.7%

**Q.** And the “insulin production, secretion and content” value (isolated mouse islets; 100 nM)?
**A.** no effect

**Q.** What about the fasting glycemia (Goto-Kakizaki (GK) rats [3]) of the same molecule?
**A.** significant reduction

**Q.** What about the “glycemic response to the glucose challenge throughout the IPGTT (glucose intolerance)” value (Goto-Kakizaki (GK) rats [3]) of the same molecule?
**A.** decrease

**Q.** And the cumulative glycemia (Goto-Kakizaki (GK) rats [3]; IPGTT)?
**A.** significant drop

**Q.** And the “increase in pancreas weight” value (Goto-Kakizaki (GK) rats [3]; P<0.01)?
**A.** +94.6%

**Q.** And the BMI (Goto-Kakizaki (GK) rats [3]; chronic administration 6 weeks)?
**A.** no effect

**Q.** And the body weight (Goto-Kakizaki (GK) rats [3]; chronic administration 6 weeks)?
**A.** no effect

**Q.** What about the fasting insulinemia (Goto-Kakizaki (GK) rats [3]; vs saline) of the same molecule?
**A.** significantly more elevated

**Q.** What about the “glucose-induced insulin secretion during the IPGTT” value (Goto-Kakizaki (GK) rats [3]; vs saline) of the same molecule?
**A.** significantly more elevated

**Q.** What about the “binding to DYRK1A” value [4] of the same molecule?
**A.** does bind
